Measured values taken from patent US11813239B2, “Compositions and methods for improving cardiac structure and/or function” (Wisconsin Alumni Research Foundation, priority 2020, dated 2023).
“Also recorded” adds a separate entry of the source.

Experiments:
[1] = test system: adult mouse heart following myocardial infarction; assay: Echocardiography after adult myocardial infarction, malonate from within an hour post-MI for two weeks; assay type: in vivo; settings: for % EF (Ejection Fraction) / % FS (Fractional Shortening) / LV Mass (Left Ventricular Mass, Anatomical Weight) / LV Vol; d (Left Ventricular Volume; diastole) / LV Vol; s (Left Ventricular Volume; systole) / LVAWD (Left Ventricle Anterior Wall Thickness Diastole) / LVAWS (Left Ventricle Anterior Wall Thickness Systole) / LVIDD (Left Ventricle Internal Diameter Diastole) / LVIDS (Left Ventricle Internal Diameter Systole) / LVPWD (Left Ventricle Posterior Wall Thickness Diastole) / LVPWS (Left Ventricle Posterior Wall Thickness Systole): adult mice, mean ± SE
[2] = test system: tricarboxylic acid (TCA) cycle and glucose metabolism; assay: LC-MS metabolite analysis of adult hearts
Description: Saline was used as a vehicle control for all experiments. […] Adult mice were injected intraperitoneally daily with either saline or 100 mg/kg dimethyl malonate post-MI for 2 or 4 weeks.
To analyze intracellular metabolites, metabolites were extracted with cold liquid chromatography-mass spectrometry (LC-MS) grade 3/1 butanol/methanol (v/v). The methanol layer was transferred to a new vial and samples were dried under nitrogen flow and subsequently dissolved in LC-MS grade water for LC-MS analysis methods. Protein pellets were removed by centrifugation. Samples were analyzed using a Thermo Q-Exactive mass spectrometer coupled to a Vanquish Horizon Ultra-High Performance Liquid Chromatograph (UHPLC). Metabolites were separated on a C18 (details below) at a 0.2 ml per min flow rate and 30° C. column temperature. […] The identification of metabolites reported was based on exact m/z and retention times, which were determined with chemical standards. Data were analyzed with Maven. Relative metabolite levels were normalized to internal standard Tryptophan (^13C11) and expressed relative to levels measured in the control group.
To determine whether SDH inhibition regulates cardiomyocyte cell cycle activity by modulating succinate levels, we measured the levels of intracellular succinate by liquid chromatography-mass spectrometry (LC-MS). […]

[3] = Baseline before surgery and dosing (same values as saline Table 4A)
[4] = MI, 14 DPMI, dimethyl malonate 100 mg/kg intraperitoneally daily for 2 weeks post-MI
[5] = MI, 28 DPMI, dimethyl malonate 100 mg/kg intraperitoneally daily for 2 weeks post-MI
[6] = sham (SH), 14 DPMI, dimethyl malonate 100 mg/kg intraperitoneally daily for 2 weeks
[7] = sham (SH), 28 DPMI, dimethyl malonate 100 mg/kg intraperitoneally daily for 2 weeks

SMILES: COC(=O)CC(=O)OC [Malonate, dimethyl malonate]
- cardiac function by echocardiography (EF and FS) ([1]; adult MI, dimethyl malonate 100 mg/kg daily for 2 weeks, 28 days post-MI, vs saline): complete restoration of cardiac function; also recorded: significant improvement of cardiac function
- cardiac function by echocardiography ([1]; adult MI, dimethyl malonate 100 mg/kg daily, 14 days post-MI, vs controls, difference was not significant): trending improvement in cardiac function
- % EF (Ejection Fraction) [1, 3]: 57.761 ± 0.698%
- % FS (Fractional Shortening) [1, 3]: 29.844 ± 0.434%
- LV Mass (Left Ventricular Mass, Anatomical Weight) [1, 3]: 78.043 ± 3.706 mg
- LV Vol; d (Left Ventricular Volume; diastole) [1, 3]: 59.761 ± 3.319 µL
- LV Vol; s (Left Ventricular Volume; systole) [1, 3]: 25.363 ± 1.705 µL
- LVAWD (Left Ventricle Anterior Wall Thickness Diastole) [1, 3]: 0.641 ± 0.006 mm
- LVAWS (Left Ventricle Anterior Wall Thickness Systole) [1, 3]: 0.767 ± 0.005 mm
- LVIDD (Left Ventricle Internal Diameter Diastole) [1, 3]: 3.731 ± 0.086 mm
- LVIDS (Left Ventricle Internal Diameter Systole) [1, 3]: 2.619 ± 0.072 mm
- LVPWD (Left Ventricle Posterior Wall Thickness Diastole) [1, 3]: 0.639 ± 0.006 mm
- LVPWS (Left Ventricle Posterior Wall Thickness Systole) [1, 3]: 0.769 ± 0.005 mm
- % EF (Ejection Fraction) [1, 4]: 44.421 ± 5.272%
- % FS (Fractional Shortening) [1, 4]: 22.034 ± 2.951%
- LV Mass (Left Ventricular Mass, Anatomical Weight) [1, 4]: 80.024 ± 8.731 mg
- LV Vol; d (Left Ventricular Volume; diastole) [1, 4]: 74.738 ± 12.392 µL
- LV Vol; s (Left Ventricular Volume; systole) [1, 4]: 44.249 ± 11.125 µL
- LVAWD (Left Ventricle Anterior Wall Thickness Diastole) [1, 4]: 0.583 ± 0.015 mm
- LVAWS (Left Ventricle Anterior Wall Thickness Systole) [1, 4]: 0.723 ± 0.020 mm
- LVIDD (Left Ventricle Internal Diameter Diastole) [1, 4]: 4.047 ± 0.283 mm
- LVIDS (Left Ventricle Internal Diameter Systole) [1, 4]: 3.188 ± 0.334 mm
- LVPWD (Left Ventricle Posterior Wall Thickness Diastole) [1, 4]: 0.578 ± 0.014 mm
- LVPWS (Left Ventricle Posterior Wall Thickness Systole) [1, 4]: 0.753 ± 0.016 mm
- % EF (Ejection Fraction) [1, 5]: 48.940 ± 5.707%
- % FS (Fractional Shortening) [1, 5]: 24.858 ± 3.214%
- LV Mass (Left Ventricular Mass, Anatomical Weight) [1, 5]: 83.201 ± 16.390 mg
- LV Vol; d (Left Ventricular Volume; diastole) [1, 5]: 84.656 ± 22.884 µL
- LV Vol; s (Left Ventricular Volume; systole) [1, 5]: 47.375 ± 16.164 µL
- LVAWD (Left Ventricle Anterior Wall Thickness Diastole) [1, 5]: 0.528 ± 0.033 mm
- LVAWS (Left Ventricle Anterior Wall Thickness Systole) [1, 5]: 0.693 ± 0.042 mm
- LVIDD (Left Ventricle Internal Diameter Diastole) [1, 5]: 4.183 ± 0.448 mm
- LVIDS (Left Ventricle Internal Diameter Systole) [1, 5]: 3.193 ± 0.451 mm
- LVPWD (Left Ventricle Posterior Wall Thickness Diastole) [1, 5]: 0.600 ± 0.020 mm
- LVPWS (Left Ventricle Posterior Wall Thickness Systole) [1, 5]: 0.755 ± 0.017 mm
- % EF (Ejection Fraction) [1, 6]: 52.458 ± 2.795%
- % FS (Fractional Shortening) [1, 6]: 26.613 ± 1.724%
- LV Mass (Left Ventricular Mass, Anatomical Weight) [1, 6]: 78.241 ± 13.192 mg
- LV Vol; d (Left Ventricular Volume; diastole) [1, 6]: 71.304 ± 10.106 µL
- LV Vol; s (Left Ventricular Volume; systole) [1, 6]: 33.993 ± 5.072 µL
- LVAWD (Left Ventricle Anterior Wall Thickness Diastole) [1, 6]: 0.575 ± 0.045 mm
- LVAWS (Left Ventricle Anterior Wall Thickness Systole) [1, 6]: 0.723 ± 0.047 mm
- LVIDD (Left Ventricle Internal Diameter Diastole) [1, 6]: 4.005 ± 0.234 mm
- LVIDS (Left Ventricle Internal Diameter Systole) [1, 6]: 2.940 ± 0.188 mm
- LVPWD (Left Ventricle Posterior Wall Thickness Diastole) [1, 6]: 0.575 ± 0.035 mm
- LVPWS (Left Ventricle Posterior Wall Thickness Systole) [1, 6]: 0.733 ± 0.046 mm
- % EF (Ejection Fraction) [1, 7]: 48.208 ± 3.686%
- % FS (Fractional Shortening) [1, 7]: 24.032 ± 2.173%
- LV Mass (Left Ventricular Mass, Anatomical Weight) [1, 7]: 82.315 ± 5.106 mg
- LV Vol; d (Left Ventricular Volume; diastole) [1, 7]: 68.006 ± 5.647 µL
- LV Vol; s (Left Ventricular Volume; systole) [1, 7]: 35.538 ± 4.993 µL
- LVAWD (Left Ventricle Anterior Wall Thickness Diastole) [1, 7]: 0.623 ± 0.014 mm
- LVAWS (Left Ventricle Anterior Wall Thickness Systole) [1, 7]: 0.755 ± 0.010 mm
- LVIDD (Left Ventricle Internal Diameter Diastole) [1, 7]: 3.940 ± 0.137 mm
- LVIDS (Left Ventricle Internal Diameter Systole) [1, 7]: 2.998 ± 0.170 mm
- LVPWD (Left Ventricle Posterior Wall Thickness Diastole) [1, 7]: 0.618 ± 0.013 mm
- LVPWS (Left Ventricle Posterior Wall Thickness Systole) [1, 7]: 0.753 ± 0.013 mm
- intracellular succinate levels in the heart (LC-MS) ([2]; adult MI, dimethyl malonate 100 mg/kg daily, 14 days post-MI): significant increase in succinate levels
- succinate levels (LC-MS metabolomics) ([2]; adult mice treated for 2 weeks with dimethyl malonate, vs saline): increase in succinate levels
